Several values for one entry are separate records, joined by “and”; a condition that tells them apart may be missing. Equal entries are not always repeated.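 These data come from cells grown in 96-well plates and exposed to compound for 48 hours at five concentrations. GI50: concentration for 50% inhibition of growth. The concentration for full growth arrest is given as TGI.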
What was measured:
Assay in all cases: DTP human tumour cell line panel, 48 h
HL-60(TB) leukemia = tested on: HL-60(TB) leukemia
LOX IMVI melanoma = tested on: LOX IMVI melanoma
SR leukemia = tested on: SR leukemia
NCI-H23 lung = tested on: NCI-H23 lung
MOLT-4 leukemia = tested on: MOLT-4 leukemia
SK-MEL-2 melanoma = tested on: SK-MEL-2 melanoma
CAKI-1 renal = tested on: CAKI-1 renal
HCC-2998 colon = tested on: HCC-2998 colon
ACHN renal = tested on: ACHN renal
U251 CNS = tested on: U251 CNS

SMILES	GI50 (HL-60(TB) leukemia)	TGI (HL-60(TB) leukemia)	GI50 (LOX IMVI melanoma)	TGI (LOX IMVI melanoma)	GI50 (SR leukemia) [nM]	TGI (SR leukemia) [µM]	GI50 (NCI-H23 lung)	TGI (NCI-H23 lung)	GI50 (MOLT-4 leukemia)	TGI (MOLT-4 leukemia)	GI50 (SK-MEL-2 melanoma) [nM]	TGI (SK-MEL-2 melanoma) [µM]	GI50 (CAKI-1 renal)	TGI (CAKI-1 renal)	GI50 (HCC-2998 colon)	TGI (HCC-2998 colon)	GI50 (ACHN renal)	TGI (ACHN renal)	GI50 (U251 CNS)	TGI (U251 CNS)
O=C(OCc1ccc2ccccc2n1)c1cn(C2CC2)c2cc(N3CCN(Cc4ccc5ccccc5n4)CC3)c(F)cc2c1=O	> 100 µM	> 100 µM	29 µM	> 89.5 µM	> 100000	> 100	42.3 µM	> 88.6 µM	> 100 µM	> 100 µM	> 100000	> 100	55.7 µM	> 100 µM	34 µM	> 100 µM	> 72.4 µM	> 100 µM	56.7 µM	> 100 µM
Nc1nc(OCc2ccccc2)c2[nH]cnc2n1	39.8 µM and 17.7 µM	181 µM and 57.8 µM	34 µM and 26.2 µM	273 µM and 115 µM	36600	–	31.6 µM and 46.9 µM	326 µM and 229 µM	88.4 µM and 33.5 µM	200 µM and 126 µM	25100	177	13.2 µM and 13.4 µM	44.2 µM and 72.4 µM and 43.5 µM	46.2 µM and 56 µM	400 µM and 182 µM	23.1 µM and 23.4 µM	244 µM and 125 µM	37.9 µM and 35.9 µM	400 µM and 204 µM
O=C1OC(=O)C(=C\c2ccc3c(c2)OCO3)/C1=C/c1ccc2c(c1)OCO2	–	> 88.1 µM	–	> 100 µM	–	> 90.8	–	> 100 µM	–	> 100 µM	–	> 100	–	> 100 µM	–	> 100 µM	–	> 100 µM	–	> 100 µM
N#CC(=C1C=CC(=NO)C=C1)c1ccc(Cl)cc1	–	9.6 µM	–	12 µM	–	43.5	–	75.3 µM	–	39.5 µM	–	20.2	–	29 µM	–	33.1 µM	–	24.9 µM	–	34.3 µM
CN1CCN(C(=O)c2cc(-c3ccc4ncnc(N5CCc6cc(F)c(Cl)cc65)c4c3)cnc2N)CC1	0.0535 µM	0.409 µM	0.192 µM	1.44 µM	137	–	0.31 µM	5.66 µM	0.127 µM	0.664 µM	238	1.02	0.165 µM	1.21 µM	0.242 µM	1.65 µM	0.27 µM	5.78 µM	0.348 µM	5.71 µM
CC(=O)Nc1ccc(C(O)/C(=N/N)c2nc3ccc(Cl)cc3[nH]c2=O)cc1 (configuration not stated)	–	> 100 µM	–	> 100 µM	–	> 100	–	> 100 µM	–	> 100 µM	–	> 100	–	> 100 µM	–	> 100 µM	–	> 100 µM	–	> 100 µM
CC(C)NCCCn1c(Sc2cc3c(cc2I)OCO3)nc2c(N)ncnc21	0.0637 µM	6.91 µM	0.0787 µM	–	60.2	> 100	0.0897 µM	> 100 µM	0.0915 µM	> 91.9 µM	357	> 83.2	0.527 µM	> 21.1 µM	0.28 µM	11.6 µM	0.297 µM	> 100 µM	0.128 µM	> 100 µM
COC1C=COC2(C)Oc3c(C)c(O)c4c(c3C2=O)/C(=N/C2CCC(O)OC2C)C=C(NC(=O)/C(C)=C\C(=O)C2CC2C(O)C(C)C(O)C(C)C(OC(C)=O)C1C)C4=O (configuration not stated)	–	6.32 µM	–	3.24 µM	–	5.06	–	3.62 µM	–	8.05 µM	–	12.4	–	9.92 µM	–	6.88 µM	–	6.68 µM	–	8.3 µM

— PubChem BioAssay (NCI)
